Experimental findings from patent EP4671240A1, “SALT CONTAINING AROMATIC RING DERIVATIVE ANTAGONIST, PREPARATION METHOD THEREFOR, AND APPLICATION THEREOF” (Jiangsu Hansoh Pharmaceutical Group Co., Ltd., priority 2023, dated 2024) are described below.

Structures are written as SMILES. Some results are limits rather than exact numbers.

The target in assay [1] is T1, CYP450 3A4-T (Homo sapiens, UniProt P08684).
T1 construct: Human liver microsome incubation system was used; from tissue; host or cells: human liver microsomes
Kind of assay: CYP enzyme single-point inhibition assay, 3A4-T. It counts as in vitro ADME. As to conditions: human liver microsomes, single-point method. The procedure:
(§1) Human liver microsome incubation system was used, and the single-point method was used to quickly predict the inhibition on CYP450 enzyme subtypes (1A2, 2C19, 2D6, 3A4-M, and 3A4-T) by compounds.
(§2) For 2.5 mM NADPH, 4.165 mg of NADPH (reduced nicotinamide adenine dinucleotide phosphate) was weighed and 100 mM phosphate buffer was added to a final volume of 2 mL. For 0.25 mg/mL microsomes, 50 µL of 20 mg/mL microsomes was mixed with […] of 100 mM phosphate buffer evenly.
(§3) The test example compounds were weighed, diluted to 10 mM with DMSO, and then diluted to 100 µM with 100 mM phosphate buffer.
(§4) • 1. Liver microsomes (40 µL), substrate (10 µL), and test compound (10 µL) were added to a 96-well plate, and the mixture was pre-incubated for 3 min. • 2. NADPH (40 µL) was added. • 3. At 20 min, acetonitrile stop solution containing internal standard (300 µL) was added. • 4. The mixture was centrifuged and the sample was loaded.

The target in assay [2] is T2, CYP450 2D6 (Homo sapiens, UniProt P10635).
T2 construct: Human liver microsome incubation system was used; from tissue; host or cells: human liver microsomes
As to the kind of experiment: CYP enzyme single-point inhibition assay, 2D6. In kind it is in vitro ADME. As to conditions: human liver microsomes, single-point method. Here is the method: as §1, §2, §3, §4
(In general: Liver microsomes are vesicles of endoplasmic reticulum, rich in cytochrome P450 enzymes.)

Assay [3] has as its target T3, ETA receptors (Homo sapiens, UniProt P25101).
T3 construct: host or cells: HEK293
T3 sequence (P25101 21-427): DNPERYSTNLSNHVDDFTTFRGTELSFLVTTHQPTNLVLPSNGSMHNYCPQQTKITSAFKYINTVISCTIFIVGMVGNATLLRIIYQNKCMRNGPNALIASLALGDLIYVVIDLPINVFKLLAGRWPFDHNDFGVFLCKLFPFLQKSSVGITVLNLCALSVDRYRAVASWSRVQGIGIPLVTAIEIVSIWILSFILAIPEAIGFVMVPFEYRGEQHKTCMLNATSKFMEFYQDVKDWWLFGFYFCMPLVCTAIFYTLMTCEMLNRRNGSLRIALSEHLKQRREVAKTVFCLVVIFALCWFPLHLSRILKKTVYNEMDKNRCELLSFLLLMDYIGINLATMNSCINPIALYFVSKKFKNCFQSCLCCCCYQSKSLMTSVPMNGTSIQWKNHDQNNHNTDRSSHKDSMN
Kind of assay: effect on calcium current in cells stably expressing ETA receptors (HEK293-ETA, FLIPR, antagonist). As to conditions: 11 concentration points 10 µM to 0.17 nM. It counts as cell-based. The text has this: Test example 2. Determination of the effect of the compounds of the present invention on calcium current in cells stably expressing ETA receptors 1. Experimental objective: To test the antagonistic effect of compounds on HEK293-ETA cell activity 2. […] Experimental data processing method: FLIPR Tetra was used to read and collect the fluorescence signal value (RFU). The maximum RFU value was used to calculate the percent activation data based on the readings of the Low control (DMSO control) and High control (100 nM positive compound) experimental groups {% activation rate = (RFUsample - RFUlow control) / (RFUhigh control - RFUlow control)×100}. […]

For assay [4], the target named is T4, CYP450 3A4-M (Homo sapiens, UniProt P08684).
T4 construct: Human liver microsome incubation system was used; from tissue; host or cells: human liver microsomes
As to the kind of experiment: CYP enzyme single-point inhibition assay, 3A4-M. It counts as in vitro ADME. As to conditions: human liver microsomes, single-point method. The procedure: as §1, §2, §3, §4

T4 sequence (P08684 whole entry): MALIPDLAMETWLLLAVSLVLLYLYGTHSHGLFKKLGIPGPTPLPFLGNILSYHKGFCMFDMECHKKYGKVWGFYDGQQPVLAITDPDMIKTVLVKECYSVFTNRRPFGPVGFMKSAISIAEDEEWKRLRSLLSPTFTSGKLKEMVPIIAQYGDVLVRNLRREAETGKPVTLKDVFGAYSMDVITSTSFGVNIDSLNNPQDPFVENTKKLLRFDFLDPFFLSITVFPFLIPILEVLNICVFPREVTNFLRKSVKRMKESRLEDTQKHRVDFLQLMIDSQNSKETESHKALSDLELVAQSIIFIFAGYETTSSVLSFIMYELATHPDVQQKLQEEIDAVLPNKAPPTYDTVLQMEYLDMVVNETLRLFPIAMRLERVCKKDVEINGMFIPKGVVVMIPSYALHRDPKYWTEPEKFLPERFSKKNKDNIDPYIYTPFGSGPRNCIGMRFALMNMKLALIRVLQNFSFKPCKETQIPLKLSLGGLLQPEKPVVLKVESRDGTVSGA
T1 sequence (P08684 whole entry): as above
T2 sequence (P10635 whole entry): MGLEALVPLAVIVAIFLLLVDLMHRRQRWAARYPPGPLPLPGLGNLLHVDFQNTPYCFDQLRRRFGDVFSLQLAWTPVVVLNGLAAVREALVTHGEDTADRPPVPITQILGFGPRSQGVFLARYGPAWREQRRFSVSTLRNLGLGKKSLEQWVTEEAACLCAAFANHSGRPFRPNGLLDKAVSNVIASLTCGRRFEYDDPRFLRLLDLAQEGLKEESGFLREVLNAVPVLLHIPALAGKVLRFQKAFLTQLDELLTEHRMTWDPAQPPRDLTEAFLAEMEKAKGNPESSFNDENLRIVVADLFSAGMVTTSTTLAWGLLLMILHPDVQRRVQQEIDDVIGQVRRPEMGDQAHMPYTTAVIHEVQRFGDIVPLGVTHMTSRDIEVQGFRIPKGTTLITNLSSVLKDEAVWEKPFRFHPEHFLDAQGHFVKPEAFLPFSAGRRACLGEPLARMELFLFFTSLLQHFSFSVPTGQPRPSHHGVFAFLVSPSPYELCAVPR

For orientation: IC50 means the midpoint of a concentration-inhibition curve. As to `[2H]C([2H])(c1ccc(-c2ccccc2S(=O)(=O)Nc2noc(C)c2Cl)c(COCC)c1)N1C(=O)C2(CCCC2)N=C1CCCC` [Example 2, 4'-((2-Butyl-4-oxo-1,3-diazaspiro[4.4]non-1-en-3-yl)methyl-d2)-N-(4-chloro-5-methylisoxazol-3-yl)-2'-(ethoxymethyl)-[1,1'-biphenyl]-2-sulfonamide], the IC50 in assay [1] was more than 100 µM; in assay [2], more than 100 µM; in assay [3], 0.0151 µM; in assay [4], 14.7 µM.
For `CCCCC1=NC2(CCCC2)C(=O)N1Cc1ccc(-c2ccccc2S(=O)(=O)Nc2noc(C)c2Cl)c(COCC)c1` [Example 8, 2-[4-[(2-Butyl-4-oxo-1,3-diazaspiro[4.4]non-1-en-3-yl)methyl]-2-(ethoxymethyl)phenyl]-N-(4-chloro-5-methyl-isoxazol-3-yl)benzenesulfonamide], the concentration for half-maximal inhibition (IC50) in assay [1] is more than 100 µM; in assay [2] it was more than 100 µM; in assay [3], 0.0149 µM; in assay [4] it was 24.9 µM.
